Laboratory results reported in US8895504B2, “Amylin derivatives” (priority 2008, dated 2014).
*1 amine or outer side, *2 acyl side, *3 side chain or, on linkers, in order; H or OH if unused. Where a SMILES comes first, the peptide text is derived from it. Bridges are numbered along the chain shown (N, C = ends). Side-chain parts run from the residue outwards. The star is where a group is joined. C20 diacid = O=C(O)CCCCCCCCCCCCCCCCCCC(=O)*; C18 diacid = O=C(O)CCCCCCCCCCCCCCCCC(=O)*; γGlu = O=C(O)[C@H](CCC(=O)[*:2])N[*:1]; Trx = NC[C@H]1CC[C@H](C(=O)O)CC1; AEEA = NCCOCCOCC(=O)O

molecular target: T1, Amylin 3(a) receptor (human calcitonin receptor (CTa) and RAMP-3) (Homo sapiens, UniProt O60896+P30988); test: Luciferase assay (III), BHK Amylin 3(a)//CRE-luc cells; format: cell-based; conditions: BHK cells with Amylin 3(a) receptor and CRE luciferase reporter, 4 hours incubation; read-out: Potency Luciferase
T1 construct: expressed in transfected cells; host or cells: BHK570 cells, stably transfected with a CRE-luciferase reporter
Method in brief: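 Read-out is CRE-driven luciferase luminescence, taken 30 min after LucLite addition at room temperature. Compounds were incubated 4 h at 37° C in assay medium (10% FBS, 10 mM Hepes, pH 7,4). The cell line is BHK570 co-transfected with human calcitonin receptor CTa and RAMP-3, seeded overnight before use.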

T1 sequence (O60896 24-148): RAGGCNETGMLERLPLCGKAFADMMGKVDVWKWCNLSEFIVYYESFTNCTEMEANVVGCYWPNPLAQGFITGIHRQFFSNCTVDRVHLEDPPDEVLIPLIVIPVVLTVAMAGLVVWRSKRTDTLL
T1 sequence (P30988 25-474): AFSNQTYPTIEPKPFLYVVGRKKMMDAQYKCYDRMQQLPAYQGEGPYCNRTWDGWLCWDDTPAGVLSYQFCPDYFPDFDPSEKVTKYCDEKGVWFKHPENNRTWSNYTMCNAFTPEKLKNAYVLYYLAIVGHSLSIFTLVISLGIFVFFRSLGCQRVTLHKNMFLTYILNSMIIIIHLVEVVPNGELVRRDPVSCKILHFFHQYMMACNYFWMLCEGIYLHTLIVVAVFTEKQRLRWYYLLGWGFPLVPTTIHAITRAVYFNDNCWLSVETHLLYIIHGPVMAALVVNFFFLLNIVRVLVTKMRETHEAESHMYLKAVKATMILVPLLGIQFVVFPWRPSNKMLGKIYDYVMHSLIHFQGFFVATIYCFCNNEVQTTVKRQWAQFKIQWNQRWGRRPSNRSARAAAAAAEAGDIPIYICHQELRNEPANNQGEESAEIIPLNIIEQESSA

EC50	SMILES
2 nM	CC[C@H](C)[C@H](NC(=O)[C@@H]1CCCN1C(=O)CNC(=O)[C@H](Cc1ccccc1)NC(=O)[C@H](CC(N)=O)NC(=O)[C@H](CC(=O)O)NC(=O)[C@H](CO)NC(=O)[C@H](CO)NC(=O)[C@H](Cc1c[nH]cn1)NC(=O)[C@H](Cc1c[nH]cn1)NC(=O)[C@H](CC(C)C)NC(=O)[C@H](Cc1ccccc1)NC(=O)[C@H](CC(N)=O)NC(=O)[C@H](C)NC(=O)[C@H](CC(C)C)NC(=O)[C@H](CCCNC(=N)N)NC(=O)[C@H](CCC(N)=O)NC(=O)[C@@H](NC(=O)[C@H](C)NC(=O)[C@@H]1CSSC[C@H](NC(=O)[C@@H](N)CCCCN)C(=O)N[C@@H](CCCCNC(=O)[C@H](CCC(=O)O)NC(=O)[C@H](CCC(=O)O)NC(=O)[C@H](CCC(=O)O)NC(=O)[C@H](CCC(=O)O)NC(=O)CCCCCCCCCCCCCCCCCCC(=O)O)C(=O)N[C@@H]([C@@H](C)O)C(=O)N[C@@H](C)C(=O)N[C@@H]([C@@H](C)O)C(=O)N1)[C@@H](C)O)C(=O)N[C@@H](CC(C)C)C(=O)N1CCC[C@H]1C(=O)N1CCC[C@H]1C(=O)N[C@H](C(=O)N[C@@H](CC(N)=O)C(=O)N[C@H](C(=O)NCC(=O)N[C@@H](CO)C(=O)N[C@@H](CC(N)=O)C(=O)N[C@H](C(=O)N[C@@H](Cc1ccc(O)cc1)C(N)=O)[C@@H](C)O)C(C)C)[C@@H](C)O [Example 4, N-epsilon3-(19-carboxynonadecanoyl-Glu-Glu-Glu-Glu)-[Lys3,His17,Asp21]-pramlintide] (H-KCK([Glu-Glu-Glu-Glu-C20 diacid])TATCATQRLANFLHHSSDNFGPILPPTNVGSNTY-NH2; disulfide 2-7)
0.1 nM	CC[C@H](C)[C@H](NC(=O)[C@@H]1CCCN1C(=O)CNC(=O)[C@H](Cc1ccccc1)NC(=O)[C@H](CC(N)=O)NC(=O)[C@H](CC(N)=O)NC(=O)[C@H](CO)NC(=O)[C@H](CO)NC(=O)[C@H](Cc1c[nH]cn1)NC(=O)[C@H](Cc1c[nH]cn1)NC(=O)[C@H](CC(C)C)NC(=O)[C@H](Cc1ccccc1)NC(=O)[C@H](CC(N)=O)NC(=O)[C@H](C)NC(=O)[C@H](CC(C)C)NC(=O)[C@H](CCCNC(=N)N)NC(=O)[C@H](CCC(N)=O)NC(=O)[C@@H](NC(=O)[C@H](C)NC(=O)[C@@H]1CSSC[C@H](NC(=O)COCCOCCNC(=O)CC[C@H](NC(=O)CCCCCCCCCCCCCCCCCCC(=O)O)C(=O)O)C(=O)N[C@@H](CC(N)=O)C(=O)N[C@@H]([C@@H](C)O)C(=O)N[C@@H](C)C(=O)N[C@@H]([C@@H](C)O)C(=O)N1)[C@@H](C)O)C(=O)N[C@@H](CC(C)C)C(=O)N1CCC[C@H]1C(=O)N1CCC[C@H]1C(=O)N[C@H](C(=O)N[C@@H](CC(N)=O)C(=O)N[C@H](C(=O)NCC(=O)N[C@@H](CO)C(=O)N[C@@H](CC(N)=O)C(=O)N[C@H](C(=O)N[C@@H](Cc1ccc(O)cc1)C(N)=O)[C@@H](C)O)C(C)C)[C@@H](C)O [Example 16, N-alpha-[2-(2-{2-[4-(S)-Carboxy-4-(19-carboxynonadecanoylamino)butyrylamino]ethoxy}ethoxy)acetyl]-[His17]-pramlintide (2-37)] ({C20 diacid-γGlu-AEEA}-CNTATCATQRLANFLHHSSNNFGPILPPTNVGSNTY-NH2; disulfide 1-6)
0.08 nM	CC[C@H](C)[C@H](NC(=O)[C@@H]1CCCN1C(=O)CNC(=O)[C@H](Cc1ccccc1)NC(=O)[C@H](CC(N)=O)NC(=O)[C@H](CC(N)=O)NC(=O)[C@H](CO)NC(=O)[C@H](CO)NC(=O)[C@H](Cc1c[nH]cn1)NC(=O)[C@H](Cc1c[nH]cn1)NC(=O)[C@H](CC(C)C)NC(=O)[C@H](Cc1ccccc1)NC(=O)[C@H](CC(N)=O)NC(=O)[C@H](C)NC(=O)[C@H](CC(C)C)NC(=O)[C@H](CCCNC(=N)N)NC(=O)[C@H](CCC(N)=O)NC(=O)[C@@H](NC(=O)[C@H](C)NC(=O)[C@@H]1CSSC[C@H](NC(=O)[C@H](Cc2c[nH]cn2)NC(=O)CC[C@H](NC(=O)CCCCCCCCCCCCCCCCC(=O)O)C(=O)O)C(=O)N[C@@H](CC(N)=O)C(=O)N[C@@H]([C@@H](C)O)C(=O)N[C@@H](C)C(=O)N[C@@H]([C@@H](C)O)C(=O)N1)[C@@H](C)O)C(=O)N[C@@H](CC(C)C)C(=O)N1CCC[C@H]1C(=O)N1CCC[C@H]1C(=O)N[C@H](C(=O)N[C@@H](CC(N)=O)C(=O)N[C@H](C(=O)NCC(=O)N[C@@H](CO)C(=O)N[C@@H](CC(N)=O)C(=O)N[C@H](C(=O)N[C@@H](Cc1ccc(O)cc1)C(N)=O)[C@@H](C)O)C(C)C)[C@@H](C)O [Example 32, N-alpha-[(S)-4-Carboxy-4-(17-carboxyheptadecanoylamino)butyryl]-[His1,His17]-pramlintide] ({C18 diacid-γGlu}-HCNTATCATQRLANFLHHSSNNFGPILPPTNVGSNTY-NH2; disulfide 2-7)
0.3 nM	CC[C@H](C)[C@H](NC(=O)[C@@H]1CCCN1C(=O)CNC(=O)[C@H](Cc1ccccc1)NC(=O)[C@H](CC(N)=O)NC(=O)[C@H](CC(N)=O)NC(=O)[C@H](CO)NC(=O)[C@H](CO)NC(=O)[C@H](Cc1c[nH]cn1)NC(=O)[C@H](Cc1c[nH]cn1)NC(=O)[C@H](CC(C)C)NC(=O)[C@H](Cc1ccccc1)NC(=O)[C@H](CC(N)=O)NC(=O)[C@H](C)NC(=O)[C@H](CC(C)C)NC(=O)[C@H](CCCNC(=N)N)NC(=O)[C@H](CCC(N)=O)NC(=O)[C@@H](NC(=O)[C@H](C)NC(=O)[C@@H]1CSSC[C@H](NC(=O)[C@H](CCCNC(=N)N)NC(=O)CC[C@H](NC(=O)CCCCCCCCCCCCCCCCCCC(=O)O)C(=O)O)C(=O)N[C@@H](CC(N)=O)C(=O)N[C@@H]([C@@H](C)O)C(=O)N[C@@H](C)C(=O)N[C@@H]([C@@H](C)O)C(=O)N1)[C@@H](C)O)C(=O)N[C@@H](CC(C)C)C(=O)N1CCC[C@H]1C(=O)N1CCC[C@H]1C(=O)N[C@H](C(=O)N[C@@H](CC(N)=O)C(=O)N[C@H](C(=O)NCC(=O)N[C@@H](CO)C(=O)N[C@@H](CC(N)=O)C(=O)N[C@H](C(=O)N[C@@H](Cc1ccc(O)cc1)C(N)=O)[C@@H](C)O)C(C)C)[C@@H](C)O [Example 6, N-alpha-[(S)-4-Carboxy-4-(19-carboxynonadecanoylamino)butyryl]-[Arg1,His17]-pramlintide] ({C20 diacid-γGlu}-RCNTATCATQRLANFLHHSSNNFGPILPPTNVGSNTY-NH2; disulfide 2-7)
0.1 nM	CC[C@H](C)[C@H](NC(=O)[C@@H]1CCCN1C(=O)CNC(=O)[C@H](Cc1ccccc1)NC(=O)[C@H](CC(N)=O)NC(=O)[C@H](CC(N)=O)NC(=O)[C@H](CO)NC(=O)[C@H](CO)NC(=O)[C@H](Cc1c[nH]cn1)NC(=O)[C@H](CCCNC(=N)N)NC(=O)[C@H](CC(C)C)NC(=O)[C@H](Cc1ccccc1)NC(=O)[C@H](CC(N)=O)NC(=O)[C@H](C)NC(=O)[C@H](CC(C)C)NC(=O)[C@H](CCCNC(=N)N)NC(=O)[C@H](CCC(N)=O)NC(=O)[C@@H](NC(=O)[C@H](C)NC(=O)[C@@H]1CSSC[C@H](NC(=O)[C@H](Cc2c[nH]cn2)NC(=O)CC[C@H](NC(=O)CCCCCCCCCCCCCCCCCCC(=O)O)C(=O)O)C(=O)N[C@@H](CC(N)=O)C(=O)N[C@@H]([C@@H](C)O)C(=O)N[C@@H](C)C(=O)N[C@@H]([C@@H](C)O)C(=O)N1)[C@@H](C)O)C(=O)N[C@@H](CC(C)C)C(=O)N1CCC[C@H]1C(=O)N1CCC[C@H]1C(=O)N[C@H](C(=O)N[C@@H](CC(N)=O)C(=O)N[C@H](C(=O)NCC(=O)N[C@@H](CO)C(=O)N[C@@H](CC(N)=O)C(=O)N[C@H](C(=O)N[C@@H](Cc1ccc(O)cc1)C(N)=O)[C@@H](C)O)C(C)C)[C@@H](C)O [Example 36, N-alpha-[(S)-4-Carboxy-4-(19-carboxynonadecanoylamino)butyryl]-[His1,Arg17]-pramlintide] ({C20 diacid-γGlu}-HCNTATCATQRLANFLRHSSNNFGPILPPTNVGSNTY-NH2; disulfide 2-7)

same assay, conditions: Potency Luciferase, BHK cells with Amylin 3(a) receptor and CRE luciferase reporter, 4 hours incubation

SMILES	EC50
CC[C@H](C)[C@H](NC(=O)[C@@H]1CCCN1C(=O)CNC(=O)[C@H](Cc1ccccc1)NC(=O)[C@H](CC(N)=O)NC(=O)[C@H](CC(N)=O)NC(=O)[C@H](CO)NC(=O)[C@H](CO)NC(=O)[C@H](Cc1c[nH]cn1)NC(=O)[C@H](Cc1c[nH]cn1)NC(=O)[C@H](CC(C)C)NC(=O)[C@H](Cc1ccccc1)NC(=O)[C@H](CC(N)=O)NC(=O)[C@H](C)NC(=O)[C@H](CC(C)C)NC(=O)[C@H](CCCNC(=N)N)NC(=O)[C@H](CCC(N)=O)NC(=O)[C@@H](NC(=O)[C@H](C)NC(=O)[C@@H]1CSSC[C@H](NC(=O)[C@H](Cc2c[nH]cn2)NC(=O)CC[C@H](NC(=O)[C@H]2CC[C@H](CNC(=O)CCCCCCCCCCCCCCCCCCC(=O)O)CC2)C(=O)O)C(=O)N[C@@H](CC(N)=O)C(=O)N[C@@H]([C@@H](C)O)C(=O)N[C@@H](C)C(=O)N[C@@H]([C@@H](C)O)C(=O)N1)[C@@H](C)O)C(=O)N[C@@H](CC(C)C)C(=O)N1CCC[C@H]1C(=O)N1CCC[C@H]1C(=O)N[C@H](C(=O)N[C@@H](CC(N)=O)C(=O)N[C@H](C(=O)NCC(=O)N[C@@H](CO)C(=O)N[C@@H](CC(N)=O)C(=O)N[C@H](C(=O)N[C@@H](Cc1ccc(O)cc1)C(N)=O)[C@@H](C)O)C(C)C)[C@@H](C)O [Example 33, N-alpha-[4-Carboxy-4-({4-[(19-carboxynonadecanoylamino)methyl]transcyclohexanecarbonyl}amino)butyryl]-[His1,His17]-pramlintide] ({C20 diacid-Trx-γGlu}-HCNTATCATQRLANFLHHSSNNFGPILPPTNVGSNTY-NH2; disulfide 2-7; C-terminus assumed)	0.1 nM
